Assay results published in patent US7691578B2, “Methods and compositions for treating obesity” (Dana-Farber Cancer Institute, Inc., priority 2004, dated 2010).
“Also recorded” adds a separate entry of the source. Read-outs that look alike come from different tables or passages of the source.

Experiments:
AMP Kinase = test: Western blot of phosphorylated (activated) AMP Kinase in HIB1B cells; type: cell-based; settings: 24 hours
Experimental: (§1) HIB1B brown fat cells were grown in DMEM (10% cosmic calf serum)+0.25 mg/ml penicillin/streptomycin at 37° C., 10% CO2.
(§2) In FIG. 2A, HIB1B cells were treated with 2 μM FCCP for 0-72 hours. In FIG. 2B, cells were treated with 50 μM FCCP for 0-48 hours. In FIG. 2C, cells were treated for 24 hours with either 50 μM FCCP or 500 μM AICAR, a compound that activates AMP Kinase. Protein was isolated, run on an SDS polyacrylamide gel, and transferred to a PVDF membrane, and blotted for the proteins indicated in the figures.

ATP synthase = test: Real time PCR of ATP synthase expression in 10T 1/2 fibroblasts; type: cell-based; settings: 16 hours
Experimental: (§3) HIB1B brown fat cells were grown in DMEM (10% cosmic calf serum)+0.25 mg/ml penicillin/streptomycin at 37° C., 10% CO2. 10T 1/2 fibroblasts were grown in DMEM+10% fetal bovine serum+0.25 mg/ml penicillin/streptomycin at 37° C., 10% CO2.
(§4) 10T 1/2 cells were treated with 50 μM FCCP, 10 μM BAPTA, a calcium chelator, or both FCCP and BAPTA for 16 hours. RNA was extracted using trizol and gene expression was measured using real time PCR. All expression levels were adjusted to actin and then the fold induction of expression was determined using the untreated cells as the control.
(§5) 10T 1/2 fibroblasts were grown in DMEM+10% fetal bovine serum+0.25 mg/ml penicillin/streptomycin at 37° C., 10% CO2. HIB1B cells were grown in DMEM+10% cosmic calf serum+0.25 mg/ml penicillin/streptomycin at 37° C., 10% CO2.
(§6) In FIG. 11A, 10T 1/2 cells were treated with 50 μM FCCP for 16 hours; in FIG. 11B, cells were treated for 72 hours with 25 μM FCCP. RNA was extracted using trizol and gene expression was measured using real time PCR. All expression levels were adjusted to actin and then the fold induction of expression was determined using the untreated cells as the control. In FIG. 11C, 10T 1/2 cells were treated for 16 hours with 50 μM FCCP. Lactate levels were measured using a lactate kit (Trinity Biotech), cells were counted, and lactate was graphed as mg lactate per million cells. […]

cytochrome c [1] = test: Real time PCR of cytochrome c expression in 10T 1/2 fibroblasts; type: cell-based; settings: 16 hours
Experimental: as §3, §4, §5, §6

COX II [2] = test: Real time PCR of COX II expression in 10T 1/2 fibroblasts; type: cell-based; settings: 16 hours
Experimental: as §3, §4, §5, §6

PGC-1β [3] = test: Real time PCR of PGC-1β expression in 10T 1/2 fibroblasts; type: cell-based; settings: 16 hours
Experimental: as §3, §4, §5, §6

PGC-1α [4] = test: Real time PCR of PGC-1α expression in 10T 1/2 fibroblasts; type: cell-based
Experimental: as §3, §4, §5
(§7) In FIG. 11A, 10T 1/2 cells were treated with 50 μM FCCP for 16 hours; in FIG. 11B, cells were treated for 72 hours with 25 μM FCCP. RNA was extracted using trizol and gene expression was measured using real time PCR. All expression levels were adjusted to actin and then the fold induction of expression was determined using the untreated cells as the control. In FIG. 11C, 10T 1/2 cells were treated for 16 hours with 50 μM FCCP. Lactate levels were measured using a lactate kit (Trinity Biotech), cells were counted, and lactate was graphed as mg lactate per million cells. In FIG. 12, HIB1B preadipocytes were treated with 25 μM FCCP, 250 μM DNP, 750 μM DNP or 1 mM DNP. RNA was extracted and run on a 1% agarose-formaldehyde gel (30 μg of RNA per lane). The gel was transferred to a nylon membrane and was probed for PGC-1α RNA and 36B4 RNA (36B4 represents the loading control).

animals = settings: large doses of DNP; cited from earlier work
PGC-1α [5] = test: Northern blot of PGC-1α expression in HIB1B brown fat cells; type: cell-based
Experimental: as §1
(§8) In FIGS. 1A and 1B, HIB1B cells were treated with 25 μM FCCP for 0-25 hours. In FIG. 1C, HIB1B cells were treated for 5 hours with 0-200 μM FCCP. RNA was extracted using trizol and was resuspended in ddH2O. RNA was run on a 1% agarose-formaldehyde gel, and 30 ug of RNA was used per lane. 36B4 was used as the loading control.
In FIG. 5A, HIB1B cells were treated with 0-15 μM Antimycin A, a Complex III inhibitor. In FIG. 5B, cells were treated for either 5 or 10 hours with 0-50 μM Atractlyoside, an adenine nucleotide transporter (ANT) inhibitor. RNA was extracted, run on a formaldehyde gel and transferred to a nylon membrane as previously described. Membranes were blotted for PGC-1α mRNA.
In FIG. 7, HIB1B cells were treated for 5 hours with 0-50 μM Ruthenium Red (RR), an inhibitor of the mitochondrial Ca^2+ uniporter, simultaneously with either 5 μM or 25 μM FCCP as indicated in the figure. Untreated cells served as a control. RNA was extracted and analyzed as previously described. Membranes were blotted for PGC-1α. 36B4 served as the loading control.
as §7

UCP2 = settings: Fao cells, 24 hour treatment, 2 μM and 25 μM FCCP
Experimental: (§9) Fao liver hepatoma cells were grown in RPMI (10% fetal bovine serum)+0.25 mg/ml penicillin/streptomycin at 37° C., 5% CO2.
(§10) In FIG. 6A, Fao liver hepatoma cells were treated with 2 μM FCCP for 0-48 hours. In FIGS. 6B and 6C, cells were treated for 24 hours with either 2 μM or 25 μM FCCP. RNA was extracted and analyzed as previously described.

PGC-1β [6] = settings: Fao cells
Experimental: as §9, §10

PGC-1α [7] = settings: HIB1B cells, 8 hours
Experimental: as §1
In FIG. 3, cells were treated for 8 hours as indicated on the figure. RNA was extracted as previously described and quantified using real time PCR. PGC-1α mRNA levels were normalized to TBP prior to analysis.

cytochrome c protein = settings: HIB1B cells, 50 μM FCCP, up to 48 hours
Experimental: as §1, §2

PGC-1α protein = settings: HIB1B cells, 2 μM FCCP, up to 72 hours
Experimental: as §1, §2

COX II [8] = settings: PGC-1α knock out preadipocytes, 25 μM FCCP, 24 hours
Experimental: (§11) Wild type and PGC-1α knock out preadipocytes were grown in DMEM+20% fetal bovine serum+0.25 mg/ml penicillin/streptomycin at 37° C., 10% CO2.
(§12) Wild type and PGC-1α knock out preadipocytes were treated for 24 hours with or without 25 μM FCCP. RNA was extracted using trizol and gene expression was measured using real time PCR. All expression levels were adjusted to actin and then the fold induction of expression was determined using the untreated cells as the control.

[9] = tested on: adenine nucleotide translocase (ANT); settings: PGC-1α knock out preadipocytes, 25 μM FCCP, 24 hours
Experimental: as §11, §12

cytochrome c [10] = settings: PGC-1α knock out preadipocytes, 25 μM FCCP, 24 hours
Experimental: as §11, §12

NRF-1 [11] = settings: PGC-1α knock out preadipocytes, 25 μM FCCP, 24 hours
Experimental: as §11, §12

PGC-1β [12] = settings: PGC-1α knock out preadipocytes, 25 μM FCCP, 24 hours
Experimental: as §11, §12

ERRα = settings: PGC-1α knock out preadipocytes, 25 μM FCCP, 24 hours
Experimental: as §11, §12

[13] = in vivo; cited from earlier work
HIB1B brown fat cells = settings: 25 μM FCCP
Experimental: as §1
In FIG. 4, HIB1B cells were treated for either 5 or 10 hours with either 0 μM or 25 μM FCCP. ATP levels were measured using the Calbiochem ATP assay kit. For analysis, ATP levels were compared to those of untreated cells at the 5 and 10 hour time points.

PGC-1β [14] = settings: HIB1B cells
Experimental: as §1, §8

NRF-1 [15] = settings: 10T 1/2 fibroblasts, 50 μM FCCP, 16 hours
Experimental: as §5, §7

10T 1/2 fibroblasts = settings: 50 μM FCCP, 16 hours
Experimental: as §5, §7

[16] = 10T 1/2 cells, 10 μM BAPTA with 50 μM FCCP
[17] = 10T 1/2 fibroblasts, 50 μM FCCP
[18] = 5 hours, increasing doses of FCCP (0-200 μM)

Experimental for mice: The procedures to be used in these experiments are as follows: IP injections of the chemical uncoupling agent FCCP are performed daily (see experimental design for dose and time information). The body temperature of the mice is measured one hour after injections so as to monitor pain and distress. If the temperature rises above 42 degrees the mice are sacrificed. The following tissues are collected from euthanized mice: brown fat, skeletal muscle, and liver, which contribute the most to standard metabolic rate. In addition, heart, pancreas, large intestine, small intestine, gall bladder, spleen, brain, testes, and ovary are collected. Tissues are used to assess PGC-1 gene expression and protein levels.
The maximum dose of FCCP that is used in this experiment is 0.5 mg/kg/day. The experiment is performed in C57 BL/6J and ob/ob (C57 BL/6J background) mice ordered from Jackson Laboratories.
Mice receive one IP injection of FCCP daily. The following experiment is repeated three times for statistical significance.
Body temperature is measured one hour after injections and weight is recorded every three days. Mice are sacrificed to avoid pain if the body temperature rises above 42 degrees. After the treatments as described above the mice are sacrificed using cervical dislocation with pre-anesthesia. […]

Compound: NC(=O)c1ncn([C@@H]2O[C@H](CO)[C@@H](O)[C@H]2O)c1N [AICAR]
- AMP Kinase activation (phospho-AMP kinase) (AMP Kinase; 500 μM AICAR, positive control): activation

Compound: O=C(O)CN(CC(=O)O)c1ccccc1OCCOc1ccccc1N(CC(=O)O)CC(=O)O [BAPTA]
- effect on FCCP-mediated induction of ATP synthase (ATP synthase; [16]): blocked
- effect on FCCP-mediated induction of cytochrome c (cytochrome c [1]; [16]): blocked
- effect on FCCP-mediated induction of COX II (COX II [2]; [16]): blocked
- effect on FCCP-mediated induction of PGC-1β (PGC-1β [3]; [16]): blocked
- effect on FCCP-mediated induction of PGC-1α (PGC-1α [4]; 10T 1/2 cells, 10 μM BAPTA with 50 μM FCCP, 16 hours): blocked

Compound: O=[N+]([O-])c1ccc(O)c([N+](=O)[O-])c1 [DNP, 2,4-dinitrophenol]
- toxic effect of large doses (animals): almost immediate onset of rigor mortis
- PGC-1α expression (PGC-1α [5]; 5 hours, three concentrations of DNP (250 μM, 750 μM, 1 mM)): caused an increase; also recorded: induces

Compound: N#CC(C#N)=NNc1ccc(OC(F)(F)F)cc1 [FCCP, carbonylcyanide-p-trifluoromethoxyphenylhydrazone]
- UCP 2 expression levels (UCP2): increased
- PGC-1β expression levels (PGC-1β [6]; 2 μM FCCP, after approximately 24 hours): increased
- PGC-1β expression levels (PGC-1β [6]; 24 hour treatment, 2 μM and 25 μM FCCP): increased
- ATP synthase expression (ATP synthase; [17]): induced
- cytochrome c expression (cytochrome c [1]; [17]): induced
- induction of PGC-1 expression levels, real time PCR (PGC-1α [7]; 25 μM FCCP): 5.5 fold
- increase in PGC-1α expression, real time PCR (PGC-1α [7]; 25 μM and 50 μM FCCP): 5-6 fold
- induction of PGC-1α levels, real time PCR (PGC-1α [7]; 50 μM FCCP): 5 fold
- PGC-1α expression levels (PGC-1α [5]; 25 μM FCCP, after 5 hours, sustained for 20 additional hours): induced
- PGC-1α expression levels (PGC-1α [5]; [18]): increased
- AMP Kinase activation (phospho-AMP kinase) (AMP Kinase; 50 μM FCCP): activated
- PGC-1α RNA and protein levels in brown fat and muscle tissue (mice; daily IP injection of FCCP): increase
- body weight and adiposity (mice; safe dose of FCCP, daily IP injection): decrease
- cytochrome c protein levels (cytochrome c protein): induced
- PGC-1α protein expression (PGC-1α protein): induced
- FCCP induction of COX II in cells that lack PGC-1α (COX II [8]): blocked
- FCCP induction of adenine nucleotide translocase (ANT) in cells that lack PGC-1α [9]: blocked
- FCCP induction of cytochrome c in cells that lack PGC-1α (cytochrome c [10]): blocked
- FCCP induction of NRF-1 in cells that lack PGC-1α (NRF-1 [11]): blocked
- FCCP induction of PGC-1β in cells that lack PGC-1α (PGC-1β [12]): blocked
- FCCP induction of ERRα in cells that lack PGC-1α (ERRα): blocked
- LD50 for FCCP relative to that of DNP [13]: about 5 times less
- drop in cellular ATP levels (HIB1B brown fat cells; 5 hours, versus untreated cells): 25%
- ATP levels below that of untreated cells (HIB1B brown fat cells; 10 hours): approximately 20%
- COX II expression (COX II [2]; [17]): induced
- PGC-1β expression levels (PGC-1β [14]; 25 μM FCCP, after 10-15 hours, remained induced until 25 hours): induced
- PGC-1β expression levels (PGC-1β [14]; [18]): did not increase
- NRF-1 expression (NRF-1 [15]): induced
- lactate levels (10T 1/2 fibroblasts): induced
- PGC-1β expression (PGC-1β [3]; [17]): induced
- expression of the PGC-1 coactivators and their target genes after long term treatment (PGC-1α [4]; 10T 1/2 fibroblasts, 25 uM FCCP, 72 hours): remain elevated
- PGC-1α expression (PGC-1α [4]; 10T 1/2 fibroblasts, 50 μM FCCP, 16 hours): induced

Compound: N.N.N.N.N.N.N.N.N.N.N.N.N.N.[Cl-].[Cl-].[Cl-].[Cl-].[Cl-].[Cl-].[O-2].[O-2].[Ru+3].[Ru+3].[Ru+4] [Ruthenium Red]
- effect on FCCP-mediated induction of PGC-1α expression (PGC-1α [5]; 5 hours, 0-50 μM Ruthenium Red with 5 μM or 25 μM FCCP, reduced at 5, 10 and 25 μM RR): blocked part

Compound: C=C1[C@@H]2CC[C@H]3[C@]4(C)C[C@H](O[C@@H]5O[C@H](CO)[C@@H](OS(=O)(=O)O)[C@H](OS(=O)(=O)O)[C@H]5OC(=O)CC(C)C)C[C@@H](C(=O)O)[C@H]4CC[C@]3(C2)[C@H]1O [atractyloside]
- PGC-1α expression (PGC-1α [5]; 5 μM atractyloside, 10 hours): increased
- PGC-1α expression (PGC-1α [5]; 50 μM atractyloside, 5 hours): increased

Compound: Antimycin A
- PGC-1α expression (PGC-1α [5]; 5 μM Antimycin A): increased
- PGC-1α expression levels (PGC-1α [5]; 10 μM Antimycin): increase
